Test results from patent US6737383B1, “Herbicidal oxadiazolidines” (priority 1999, dated 2004).

Columns and labels:
[1] = test system: bedstraw; test: Test B pre/postemergence bedstraw; format: in vivo, Galium aparine; conditions: for Bedstraw plant response rating: 10 is complete control
Outline: (§1)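 Test chemicals in a non-phytotoxic solvent mixture with surfactant were sprayed preemergence onto planted seeds and postemergence onto plants 2 to 18 cm tall (1- to 4-leaf stage). After twelve to sixteen days in a greenhouse, injury was visually rated against untreated controls from 0 (no effect) to 10 (complete control).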

[2] = test system: blackgrass; test: Test B pre/postemergence blackgrass; format: in vivo, Alopecurus myosuroides
Outline: as §1

[3] = test system: surinam grass; test: Test B pre/postemergence surinam grass; format: in vivo, Brachiaria decumbens
Outline: as §1

[4] = test system: cocklebur; test: Test B pre/postemergence cocklebur; format: in vivo, Xanthium strumarium
Outline: as §1

[5] = test system: corn; test: Test B pre/postemergence corn; format: in vivo, Zea mays
Outline: as §1

[6] = test system: crabgrass; test: Test B pre/postemergence crabgrass; format: in vivo, Digitaria sanguinalis
Outline: as §1

[7] = test system: giant foxtail; test: Test B pre/postemergence giant foxtail; format: in vivo, Setaria faberii
Outline: as §1

[8] = test system: morningglory; test: Test B pre/postemergence morningglory; format: in vivo, Ipomoea hederacea
Outline: as §1

[9] = test system: pigweed; test: Test B pre/postemergence pigweed; format: in vivo, Amaranthus retroflexus
Outline: as §1

[10] = test system: rape; test: Test B pre/postemergence rape; format: in vivo, Brassica napus
Outline: as §1

[11] = test system: soybean; test: Test B pre/postemergence soybean; format: in vivo, Glycine max
Outline: as §1

[12] = test system: sugar beet; test: Test B pre/postemergence sugar beet; format: in vivo, Beta vulgaris
Outline: as §1

[13] = test system: velvetleaf; test: Test B pre/postemergence velvetleaf; format: in vivo, Abutilon theophrasti
Outline: as §1

[14] = test system: wheat; test: Test B pre/postemergence wheat; format: in vivo, Triticum aestivum
Outline: as §1

[15] = test system: wild oat; test: Test B pre/postemergence wild oat; format: in vivo, Avena fatua
Outline: as §1

[16] = test system: purple nutsedge; test: Test B pre/postemergence purple nutsedge; format: in vivo, Cyperus rotundus
Outline: as §1

[17] = Preemergence, Rate 62 g/ha, scale of 0 to 10 where 0 is no effect and 10 is complete control
[18] = Postemergence, Rate 62 g/ha, scale of 0 to 10, 0 is no effect, 10 is complete control
[19] = Postemergence, Rate 125 g/ha, scale 0 to 10, 0 is no effect, 10 is complete control
[20] = Postemergence, Rate 250 g/ha, scale 0 to 10
[21] = Postemergence, Rate 500 g/ha, scale 0 to 10, 0 is no effect, 10 is complete control
[22] = Preemergence, Rate 125 g/ha, scale 0 to 10, 0 is no effect, 10 is complete control
[23] = Preemergence, Rate 250 g/ha, scale 0 to 10, 0 is no effect, 10 is complete control
[24] = Preemergence, Rate 500 g/ha, scale of 0 to 10 where 0 is no effect and 10 is complete control

COC(=O)CCCn1c(=O)on(C(=O)N(c2ccc(F)cc2F)C(C)C)c1=O [Compound 513]
Bedstraw plant response rating ([1]; Postemergence, Rate 62 g/ha, scale of 0 to 10, 0 is no effect): 6 | Plant response rating, Bedstraw [1, 17]: 0 | Bedstraw plant response rating ([1]; Preemergence, Rate 250 g/ha, scale 0 to 10, 0 is no effect): 0 | Bedstraw plant response rating ([1]; Preemergence, Rate 500 g/ha, scale 0 to 10, 0 is no effect): 4 | Blackgrass plant response rating [2, 18]: 4 | Blackgrass plant response rating [2, 19]: 4 | Blackgrass plant response rating [2, 20]: 8 | Plant response rating, Blackgrass [2, 21]: 8 | Plant response rating, Blackgrass [2, 17]: 1 | Blackgrass plant response rating [2, 22]: 4 | Blackgrass plant response rating [2, 23]: 4 | Blackgrass plant response rating [2, 24]: 10 | B. signalgrass plant response rating [3, 18]: 0 | B. signalgrass plant response rating [3, 19]: 3 | B. signalgrass plant response rating ([3]; Postemergence, Rate 250 g/ha, scale 0 to 10, 0 no effect, 10 complete control): 6 | Plant response rating, B. signalgrass [3, 21]: 8 | Plant response rating, B. signalgrass [3, 17]: 0 | B. signalgrass plant response rating [3, 22]: 0 | B. signalgrass plant response rating [3, 23]: 5 | B. signalgrass plant response rating ([3]; Preemergence, Rate 500 g/ha, scale 0 to 10, 0 is no effect, 10 is complete control): 9 | Cocklebur plant response rating [4, 18]: 3 | Cocklebur plant response rating [4, 19]: 3 | Cocklebur plant response rating [4, 20]: 6 | Plant response rating, Cocklebur [4, 21]: 7 | Plant response rating, Cocklebur [4, 17]: 0 | Cocklebur plant response rating [4, 22]: 0 | Cocklebur plant response rating [4, 23]: 0 | Cocklebur plant response rating [4, 24]: 0 | Corn plant response rating [5, 18]: 0 | Corn plant response rating [5, 19]: 0 | Corn plant response rating [5, 20]: 0 | Plant response rating, Corn [5, 21]: 3 | Plant response rating, Corn [5, 17]: 0 | Corn plant response rating [5, 22]: 0 | Corn plant response rating [5, 24]: 4 | Crabgrass plant response rating [6, 18]: 1 | Crabgrass plant response rating [6, 19]: 4 | Crabgrass plant response rating [6, 20]: 6 | Plant response rating, Crabgrass [6, 21]: 9 | Plant response rating, Crabgrass [6, 17]: 4 | Crabgrass plant response rating [6, 22]: 4 | Crabgrass plant response rating [6, 24]: 5 | Giant foxtail plant response rating [7, 18]: 1 | Giant foxtail plant response rating [7, 19]: 5 | Plant response rating, Giant foxtail [7, 21]: 8 | Plant response rating, Giant foxtail [7, 17]: 2 | Giant foxtail plant response rating [7, 22]: 6 | Giant foxtail plant response rating [7, 24]: 10 | Morningglory plant response rating [8, 18]: 3 | Morningglory plant response rating [8, 19]: 3 | Plant response rating, Morningglory [8, 21]: 9 | Plant response rating, Morningglory [8, 17]: 0 | Morningglory plant response rating [8, 22]: 0 | Morningglory plant response rating [8, 24]: 3 | Redroot pigweed plant response rating [9, 18]: 3 | Redroot pigweed plant response rating [9, 19]: 6 | Plant response rating, Redroot pigweed [9, 21]: 7 | Plant response rating, Redroot pigweed [9, 17]: 7 | Redroot pigweed plant response rating [9, 22]: 7 | Redroot pigweed plant response rating [9, 24]: 10 | Rape plant response rating [10, 18]: 0 | Rape plant response rating [10, 19]: 4 | Plant response rating, Rape [10, 21]: 7 | Plant response rating, Rape [10, 17]: 0 | Rape plant response rating [10, 22]: 2 | Rape plant response rating [10, 24]: 7 | Soybean plant response rating [11, 18]: 1 | Soybean plant response rating [11, 19]: 7 | Plant response rating, Soybean [11, 21]: 8 | Plant response rating, Soybean [11, 17]: 0 | Soybean plant response rating [11, 22]: 0 | Soybean plant response rating [11, 24]: 5 | Sugarbeets plant response rating [12, 18]: 2 | Sugarbeets plant response rating [12, 19]: 4 | Plant response rating, Sugarbeets [12, 21]: 7 | Plant response rating, Sugarbeets [12, 17]: 0 | Sugarbeets plant response rating [12, 22]: 0 | Sugarbeets plant response rating [12, 24]: 0 | Velvetleaf plant response rating [13, 18]: 3 | Velvetleaf plant response rating [13, 19]: 3 | Plant response rating, Velvetleaf [13, 21]: 7 | Plant response rating, Velvetleaf [13, 17]: 0 | Velvetleaf plant response rating [13, 22]: 0 | Velvetleaf plant response rating [13, 24]: 0 | Wheat plant response rating [14, 18]: 3 | Wheat plant response rating [14, 19]: 5 | Plant response rating, Wheat [14, 21]: 6 | Plant response rating, Wheat [14, 17]: 0 | Wheat plant response rating [14, 22]: 2 | Wheat plant response rating [14, 24]: 7 | Wild oats plant response rating [15, 18]: 0 | Wild oats plant response rating [15, 19]: 4 | Plant response rating, Wild oats [15, 21]: 6 | Plant response rating, Wild oats [15, 17]: 3 | Wild oats plant response rating [15, 22]: 3 | Wild oats plant response rating [15, 24]: 10 | Nutsedge plant response rating [16, 18]: 0 | Nutsedge plant response rating [16, 19]: 0 | Plant response rating, Nutsedge [16, 21]: 5 | Plant response rating, Nutsedge [16, 17]: 0 | Nutsedge plant response rating [16, 22]: 0 | Nutsedge plant response rating [16, 24]: 0
